Tested on: chicken leukocytes
Test: cells
Assay type: cell-based
Details: for minimal effective concentration: Gallus gallus, Leukocyte, read-out: MSC (Minimum Stimulatory Concentration)
Protocol: Various compounds of Formula I were evaluated for in vitro T-lymphocyte blastogenic activity with chicken leukocytes according to the steps described in the following procedure:
(a) Exsanguination step. The leukocytes were obtained from 3-6 week old Hubbard/Peterson broiler chickens. Initially, the chickens were rendered unconscious in a CO2 chamber. The chickens were then exsanguinated via cardiac puncture. In the exsanguination procedure, a syringe was connected to a needle, and the needle was inserted into the area at the base of the neck under the “V” formed by the breast and sternum. After the needle was properly inserted, continuous vacuum was applied to a syringe (connected to the needle) by pulling back on the plunger. It is important to promptly carry out this withdrawal action, because there is only a 10-15 seconds time period after the blood has starting flowing into the syringe before the blood coagulates, and becomes unusable. As soon as the syringe is full (or prior to complete filling if too much time has elapsed such that the blood begins to coagulate), the whole uncoagulated blood is transferred to a tube having the anticoagulant EDTA therein. The tube is then rotated to mix the whole blood and the EDTA. Alternatively, the whole blood can be withdrawn directly into a vacuum container already having EDTA therein, rather than into a syringe.
(b) Leukocyte isolation step. Numerous methods for isolating leukocytes from (uncoagulated) whole blood are known in the art. In a preferred method, the sterile whole blood was combined with methylcellulose (1.5:1). Any blood containing clots was discarded. The mixture was centrifuged at 30×g for ten minutes (300 rpm on Beckman GS-6R centrifuge). The top layer (leukocytes in supernatant) was decanted into a sterile 50 ml conical tube, while taking care to prevent contamination of the sample by red blood cells. The decanted layer was then centrifuged at 200×g for ten minutes (1500 rpm on the Beckman GS-6R centrifuge). The supernatant liquid was discarded, and the resulting cell “pellet” was retained.
The cells were then washed in a solution containing 10 ml PBS (phosphate buffered saline) and Gentamycin (gentamicin sulfate) at a concentration of 50 μg/ml. This solution was centrifuged at 100×g (1000 rpm on the Beckman centrifuge) for five minutes, and the supernatant liquid was discarded. The washing step (including the centrifuging at 100×g) was repeated to ensure complete removal of the methylcellulose. The use of media such as DMEM ([…]) was avoided in the washing steps, since such media may cause agglutination of the white blood cells. Finally, the cells were then suspended in an appropriate media, such as RPMI 1640 tissue cell culture medium, supplemented with phenol red, NaHCO3, and L-Glutamide. Supplemented RPMI 1640 is available from Sigma-Aldrich Chemical Co.
(c) Cell counting and cell viability step. The cells were counted and checked for viability using the Trypan Blue method of exclusion. 0.1 ml of the cell suspension was placed in a 4-5 ml small culture tube along with 0.7 ml HBSS (Hank's Buffered Saline Solution), available from Sigma-Aldrich, and 0.2 ml of a 0.4% solution of aqueous Trypan Blue stain, available from GIBCO BRL, of Grand Island, N.Y. The components were mixed thoroughly but gently, and allowed to sit for 5 minutes (no longer than 15 minutes). The components should not be exposed to the stain for extended periods of time, because such extended exposure may permit viable cells, as well as non-viable cells, to take up dye.
A cover slip was placed on a Bright Line hemacytometer, available from Howser Scientific, and 10 μl of the mixture from the tube was transferred to each chamber. Non-viable cells appear blue under a microscope. The viable cells in one of the 16-square corners of the hemacytometer were then counted. […]

[1] = chicken leukocytes, read at 72 hours
[2] = Hubbard/Peterson broiler, chicken, 72 h

CCOC(=O)[C@H]1CCCN(C(=O)C(C)c2ccccc2)C1 (mixture of isomers) [Example 58, (S)±Ethyl 1-(2-Phenylpropionyl)-3-piperidinecarboxylate]
MSC (Minimum Stimulatory Concentration) [1]: 1 µg/mL

CCOC(=O)C1CCCN(C(=O)c2ccccc2)C1 (stereo not shown) [Example 1, Ethyl 1-Benzoyl-3-piperidinecarboxylate]
minimal effective concentration [1]: 0.1 µg/mL | MTC (Maximum Tolerable Concentration prior to causing cytotoxicity) [2]: 10 µg/mL

CCOC(=O)C1CCCN(C(=O)c2ccsc2)C1 (stereo not shown) [Example 2, Ethyl 1-(3-thiophenecarbonyl)-3-piperidinecarboxylate]
minimal effective concentration [1]: 1 µg/mL | MTC (Maximum Tolerable Concentration prior to causing cytotoxicity) [2]: 1 µg/mL

CCOC(=O)C1CN(C(=O)c2ccccc2)CCC1=O (stereo not shown) [Example 3, Ethyl 1-Benzoyl-4-oxo-3-piperidinecarboxylate]
minimal effective concentration [1]: 0.01 µg/mL | MTC (Maximum Tolerable Concentration prior to causing cytotoxicity) [2]: 1 µg/mL

CCOC(=O)C1CCCN(C(=O)OCc2ccccc2)C1 (stereo not shown) [Example 4, Ethyl 1-Benzyloxycarbonyl-3-piperidinecarboxylate]
minimal effective concentration [1]: 1 µg/mL | MTC (Maximum Tolerable Concentration prior to causing cytotoxicity) [2]: 10 µg/mL

CCOC(=O)C1CCCN(C(=O)Cc2ccccc2)C1 (stereo not shown) [Example 6, Ethyl 1-Phenylacetyl-3-piperidinecarboxylate]
MSC (Minimum Stimulatory Concentration) [1]: 0.1 µg/mL | MTC (Maximum Tolerable Concentration prior to causing cytotoxicity) [1]: 1 µg/mL

CCOC(=O)C1CCCN(C(=O)c2ccc(F)cc2)C1 (stereo not shown) [Example 7, Ethyl 1-(4-Fluorobenzoyl)-3-piperidinecarboxylate]
minimal effective concentration [1]: 0.01 µg/mL | MTC (Maximum Tolerable Concentration prior to causing cytotoxicity) [2]: 10 µg/mL

CCOC(=O)C1CCCN(C(=O)c2cccs2)C1 (stereo not shown) [Example 8, Ethyl (2-Thiophenecarbonyl)-3-piperidinecarboxylate]
MSC (Minimum Stimulatory Concentration) [1]: 0.1 µg/mL

CCOC(=O)C1CCCN(C(=O)Cc2cccs2)C1 (stereo not shown) [Example 9, Ethyl 1-(2-thiopheneacetyl)-3-piperidinecarboxylate]
minimal effective concentration [1]: 0.01 µg/mL | MTC (Maximum Tolerable Concentration prior to causing cytotoxicity) [2]: 1 µg/mL

CCOC(=O)C1CN(C(=O)OCc2ccccc2)CCC1=O (stereo not shown) [Example 10, Ethyl 1-Benzyloxycarbonyl-4-oxo-3-piperidinecarboxylate]
minimal effective concentration [1]: 0.01 µg/mL | MTC (Maximum Tolerable Concentration prior to causing cytotoxicity) [2]: 0.1 µg/mL

CCOC(=O)C1CN(C(=O)c2ccc(F)cc2)CCC1=O (stereo not shown) [Example 12, Ethyl 1-(4-Fluorobenzoyl)-4-oxo-3-piperidinecarboxylate]
minimal effective concentration [1]: 0.01 µg/mL | MTC (Maximum Tolerable Concentration prior to causing cytotoxicity) [2]: 0.1 µg/mL

CCCCOC(=O)C1CCCN(C(=O)c2ccccc2)C1 (stereo not shown) [Example 13, n-Butyl 1-Benzoyl-3-piperidinecarboxylate]
minimal effective concentration [1]: 0.01 µg/mL | MTC (Maximum Tolerable Concentration prior to causing cytotoxicity) [2]: 1 µg/mL

CCNC(=O)C1CCCN(C(=O)c2ccccc2)C1 (stereo not shown) [Example 17, N-Ethyl 1-Benzoyl-3-piperidinecarboxamide]
minimal effective concentration [1]: 1 µg/mL | MTC (Maximum Tolerable Concentration prior to causing cytotoxicity) [2]: 10 µg/mL

CCCCCCCCNC(=O)C1CCCN(C(=O)c2ccccc2)C1 (stereo not shown) [Example 18, N-(n-Octyl) 1-Benzoyl-3-piperidinecarboxamide]
minimal effective concentration [1]: 0.01 µg/mL | MTC (Maximum Tolerable Concentration prior to causing cytotoxicity) [2]: 0.1 µg/mL

CCNC(=O)C1CCCN(C(=O)Cc2cccs2)C1 (stereo not shown) [Example 20, N-Ethyl 1-(2-Thiopheneacetyl)-3-piperidinecarboxamide]
minimal effective concentration [1]: 0.1 µg/mL | MTC (Maximum Tolerable Concentration prior to causing cytotoxicity) [2]: 1 µg/mL

CCOC(=O)C1CCCN(C(=O)CCc2cccs2)C1 (stereo not shown) [Example 23, Ethyl 1-(3-(2-Thienyl)propionyl)3-piperidinecarboxylate]
minimal effective concentration [1]: 0.1 µg/mL | MTC (Maximum Tolerable Concentration prior to causing cytotoxicity) [2]: 1 µg/mL

CN(C)CCNC(=O)C1CCCN(C(=O)Cc2cccs2)C1 (stereo not shown) [Example 25, 2-Dimethylaminoethyl 1-(2-thiopheneacetyl)-3-piperidinecarboxamide]
minimal effective concentration [1]: 0.1 µg/mL | MTC (Maximum Tolerable Concentration prior to causing cytotoxicity) [2]: 1 µg/mL

CCOC(=O)CC1CCCN(C(=O)Cc2cccs2)C1 (stereo not shown) [Example 27, Ethyl 1-(2-Thiopheneacetyl)-3-piperidinylacetate]
minimal effective concentration [1]: 1 µg/mL | MTC (Maximum Tolerable Concentration prior to causing cytotoxicity) [2]: 1 µg/mL

CCOC(=O)CC1CCCCN1C(=O)Cc1cccs1 (stereo not shown) [Example 28, Ethyl 1-(2-Thiopheneacetyl)-2-piperidinylacetate]
MSC (Minimum Stimulatory Concentration) [1]: 0.1 µg/mL

CCOC(=O)C1CCC(C)N(C(=O)Cc2cccs2)C1 (stereo not shown) [Example 33, Ethyl 1-(2-Thiopheneacetyl)-6-methyl-3-piperidinecarboxylate]
minimal effective concentration [1]: 0.1 µg/mL | MTC (Maximum Tolerable Concentration prior to causing cytotoxicity) [2]: 10 µg/mL

CCOC(=O)C1CCC[N+](C)(Cc2ccccc2)C1.[I-] (stereo not shown) [Example 35, Ethyl 1-Benzyl-3-piperidinecarboxylate 1-Methiodide]
MSC (Minimum Stimulatory Concentration) [1]: 10 µg/mL

CCOC(=O)C1CCCN(C(=O)c2ccc(-c3ccccc3)cc2)C1 (stereo not shown) [Example 36, Ethyl 1-(4-Phenylbenzoyl)-3-piperidinecarboxylate]
minimal effective concentration [1]: 0.1 µg/mL | MTC (Maximum Tolerable Concentration prior to causing cytotoxicity) [2]: 10 µg/mL

O=C(O)[C@H]1CCCN(C(=O)Cc2cccs2)C1 [Example 37, (S)-1-(2-Thiopheneacetyl)-3-piperidine Carboxylic Acid]
minimal effective concentration [1]: 10 µg/mL | MTC (Maximum Tolerable Concentration prior to causing cytotoxicity) [2]: 1000 µg/mL

COC(=O)C1CN(C(=O)OCc2ccccc2)CCC1=O (stereo not shown) [Example 38, Methyl 1-Benzyloxycarbonyl-4-oxo-3-piperidinecarboxylate]
minimal effective concentration [1]: 1 µg/mL | MTC (Maximum Tolerable Concentration prior to causing cytotoxicity) [2]: 1 µg/mL

CCOC(=O)C1(C)CCCN(C(=O)c2ccccc2)C1 (stereo not shown) [Example 39, Ethyl 1-Benzoyl-3-methyl-3-piperidinecarboxylate]
minimal effective concentration [1]: 1 µg/mL | MTC (Maximum Tolerable Concentration prior to causing cytotoxicity) [2]: 1 µg/mL

CNC(=O)N1C2CCC1C(C(=O)OC)C(=O)C2 (stereo not shown) [Example 40, 8-[(Methylamino)carbonyl]-3-oxo-8-azabicyclo[3.2.1]octane-2-carboxylic Acid, Methyl Ester]
minimal effective concentration [1]: 0.01 µg/mL | MTC (Maximum Tolerable Concentration prior to causing cytotoxicity) [1]: 10 µg/mL

O=C(Cc1cccs1)N1CCCC(O)C1 (stereo not shown) [Example 41, 1-(2-Thiopheneacetyl)-3-hydroxypiperidine]
minimal effective concentration [1]: 10 µg/mL | MTC (Maximum Tolerable Concentration prior to causing cytotoxicity) [2]: 100 µg/mL

N.O=C(O)[C@H]1CCCN(C(=O)Cc2cccs2)C1 [Example 42, (S)-1-(2-Thiopheneacetyl)-3-piperidinecarboxylic Acid Ammonium Salt]
minimal effective concentration [1]: 1 µg/mL | MTC (Maximum Tolerable Concentration prior to causing cytotoxicity) [1]: 10 µg/mL

CCOC(=O)C1CCCN(C(=O)CCc2ccccc2)C1 (stereo not shown) [Example 43, Ethyl 1-(1-Phenylpropionyl)-3-piperidinecarboxylate]
MSC (Minimum Stimulatory Concentration) [1]: 1 µg/mL

CS(=O)(=O)OC1CCCN(C(=O)Cc2cccs2)C1 (stereo not shown) [Example 44, 1-(2-Thiopheneacetyl)-3-(O-methanesulfonyl)piperidine]
MSC (Minimum Stimulatory Concentration) [1]: 1 µg/mL | MTC (Maximum Tolerable Concentration prior to causing cytotoxicity) [1]: 10 µg/mL
